Measured values taken from PubChem BioAssay (NCI).
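Each compound was tested at five concentrations against cells in 96-well plates for 48 hours. Definition used: TGI = concentration required for complete inhibition of growth.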

What was measured:
Test in all cases: growth of human tumour cells (NCI), 48 h
SK-MEL-5 melanoma = system: SK-MEL-5 melanoma
HOP-62 NSCLC = system: HOP-62 NSCLC
NCI-H460 lung = system: NCI-H460 lung
COLO 205 colon = system: COLO 205 colon
IGROV1 ovarian = system: IGROV1 ovarian
NCI-H226 lung = system: NCI-H226 lung
MDA-N = system: MDA-N
ACHN renal = system: ACHN renal
OVCAR-5 ovarian = system: OVCAR-5 ovarian
SF-268 CNS = system: SF-268 CNS
A498 renal = system: A498 renal
RXF 393 renal = system: RXF 393 renal
UACC-62 melanoma = system: UACC-62 melanoma
SF-295 CNS = system: SF-295 CNS
HT29 colon = system: HT29 colon
NCI/ADR-RES ovarian = system: NCI/ADR-RES ovarian
HCT-15 colon = system: HCT-15 colon
PC-3 prostate = system: PC-3 prostate
SNB-19 CNS = system: SNB-19 CNS
LOX IMVI melanoma = system: LOX IMVI melanoma
SK-MEL-2 melanoma = system: SK-MEL-2 melanoma
BT-549 breast = system: BT-549 breast
CCRF-CEM leukemia = system: CCRF-CEM leukemia
SK-MEL-28 melanoma = system: SK-MEL-28 melanoma
SW-620 colon = system: SW-620 colon
MOLT-4 leukemia = system: MOLT-4 leukemia
DU-145 prostate = system: DU-145 prostate
HCT-116 colon = system: HCT-116 colon
A549 NSCLC = system: A549 NSCLC
M14 melanoma = system: M14 melanoma
HS 578T breast = system: HS 578T breast
MCF7 breast = system: MCF7 breast
TK-10 renal = system: TK-10 renal
OVCAR-4 ovarian = system: OVCAR-4 ovarian
RPMI-8226 leukemia = system: RPMI-8226 leukemia
SR leukemia = system: SR leukemia
HOP-92 NSCLC = system: HOP-92 NSCLC
HCC-2998 colon = system: HCC-2998 colon
786-0 renal = system: 786-0 renal
NCI-H23 lung = system: NCI-H23 lung
MDA-MB-231 breast = system: MDA-MB-231 breast
T-47D breast = system: T-47D breast
UO-31 renal = system: UO-31 renal
HL-60(TB) leukemia = system: HL-60(TB) leukemia
CAKI-1 renal = system: CAKI-1 renal
OVCAR-3 ovarian = system: OVCAR-3 ovarian
U251 CNS = system: U251 CNS
EKVX NSCLC = system: EKVX NSCLC
MALME-3M melanoma = system: MALME-3M melanoma
NCI-H522 lung = system: NCI-H522 lung
SNB-75 CNS = system: SNB-75 CNS
KM12 colon = system: KM12 colon
OVCAR-8 ovarian = system: OVCAR-8 ovarian
SK-OV-3 ovarian = system: SK-OV-3 ovarian
MDA-MB-435 = system: MDA-MB-435
UACC-257 melanoma = system: UACC-257 melanoma
SN12C renal = system: SN12C renal
K-562 leukemia = system: K-562 leukemia
SF-539 CNS = system: SF-539 CNS

CC(=O)c1c(C)cn(S(=O)(=O)NC(=O)Nc2nncs2)c1C
TGI (SK-MEL-5 melanoma): > 100 µM | TGI (HOP-62 NSCLC): > 100 µM | TGI (NCI-H460 lung): > 100 µM | TGI (COLO 205 colon): > 100 µM | TGI (IGROV1 ovarian): > 100 µM | TGI (NCI-H226 lung): > 100 µM | TGI (MDA-N): > 100 µM | TGI (ACHN renal): > 100 µM | TGI (OVCAR-5 ovarian): > 100 µM | TGI (SF-268 CNS): > 100 µM | TGI (A498 renal): > 100 µM | TGI (RXF 393 renal): > 100 µM | TGI (UACC-62 melanoma): > 100 µM | TGI (SF-295 CNS): > 100 µM | TGI (HT29 colon): > 100 µM | TGI (NCI/ADR-RES ovarian): > 100 µM | TGI (HCT-15 colon): > 100 µM | TGI (PC-3 prostate): > 100 µM | TGI (SNB-19 CNS): > 100 µM | TGI (LOX IMVI melanoma): > 100 µM | TGI (SK-MEL-2 melanoma): > 100 µM | TGI (BT-549 breast): > 100 µM | TGI (CCRF-CEM leukemia): 78.1 µM | TGI (SK-MEL-28 melanoma): > 100 µM | TGI (SW-620 colon): > 100 µM | TGI (MOLT-4 leukemia): > 100 µM | TGI (DU-145 prostate): > 100 µM | TGI (HCT-116 colon): > 100 µM | TGI (A549 NSCLC): > 100 µM | TGI (M14 melanoma): > 100 µM | TGI (HS 578T breast): > 100 µM | TGI (MCF7 breast): > 100 µM | TGI (TK-10 renal): > 100 µM | TGI (OVCAR-4 ovarian): > 100 µM | TGI (RPMI-8226 leukemia): > 100 µM | TGI (SR leukemia): > 100 µM | TGI (HOP-92 NSCLC): > 100 µM | TGI (HCC-2998 colon): > 100 µM | TGI (786-0 renal): > 100 µM | TGI (NCI-H23 lung): > 100 µM | TGI (MDA-MB-231 breast): > 100 µM | TGI (T-47D breast): > 100 µM | TGI (UO-31 renal): > 100 µM | TGI (HL-60(TB) leukemia): > 100 µM | TGI (CAKI-1 renal): > 100 µM | TGI (OVCAR-3 ovarian): > 100 µM | TGI (U251 CNS): > 100 µM | TGI (EKVX NSCLC): > 100 µM | TGI (MALME-3M melanoma): > 100 µM | TGI (NCI-H522 lung): > 100 µM | TGI (SNB-75 CNS): > 100 µM | TGI (KM12 colon): > 100 µM | TGI (OVCAR-8 ovarian): > 100 µM | TGI (SK-OV-3 ovarian): > 100 µM | TGI (MDA-MB-435): > 100 µM | TGI (UACC-257 melanoma): > 100 µM | TGI (SN12C renal): > 100 µM | TGI (K-562 leukemia): > 100 µM

O=C1CC(c2ccccc2Cl)C2(C(=O)NC(=S)NC2=O)C(c2ccccc2Cl)C1 (stereo not drawn)
TGI (SK-MEL-5 melanoma): 58.6 µM | TGI (HOP-62 NSCLC): > 100 µM | TGI (NCI-H460 lung): 42.9 µM | TGI (COLO 205 colon): > 100 µM | TGI (IGROV1 ovarian): 77 µM | TGI (NCI-H226 lung): 71.4 µM | TGI (MDA-N): > 100 µM | TGI (ACHN renal): 55.7 µM | TGI (OVCAR-5 ovarian): > 100 µM | TGI (SF-268 CNS): 38.3 µM | TGI (A498 renal): 40.4 µM | TGI (RXF 393 renal): 32.8 µM | TGI (UACC-62 melanoma): 40.8 µM | TGI (SF-295 CNS): 66.6 µM | TGI (HT29 colon): > 100 µM | TGI (SF-539 CNS): > 100 µM | TGI (NCI/ADR-RES ovarian): > 100 µM | TGI (HCT-15 colon): 53.6 µM | TGI (PC-3 prostate): 81.8 µM | TGI (SNB-19 CNS): 30.9 µM | TGI (LOX IMVI melanoma): 36.4 µM | TGI (SK-MEL-2 melanoma): 62 µM | TGI (BT-549 breast): 98.2 µM | TGI (CCRF-CEM leukemia): > 100 µM | TGI (SK-MEL-28 melanoma): > 100 µM | TGI (SW-620 colon): > 100 µM | TGI (MOLT-4 leukemia): > 100 µM | TGI (DU-145 prostate): > 100 µM | TGI (HCT-116 colon): 41 µM | TGI (A549 NSCLC): 65.5 µM | TGI (M14 melanoma): 38.9 µM | TGI (HS 578T breast): 22.8 µM | TGI (MCF7 breast): 40.2 µM | TGI (TK-10 renal): 0.206 µM | TGI (OVCAR-4 ovarian): > 100 µM | TGI (RPMI-8226 leukemia): > 100 µM | TGI (SR leukemia): > 100 µM | TGI (HOP-92 NSCLC): 32.1 µM | TGI (HCC-2998 colon): 52.1 µM | TGI (786-0 renal): 51 µM | TGI (NCI-H23 lung): 37.7 µM | TGI (MDA-MB-231 breast): 72.8 µM | TGI (T-47D breast): 93.5 µM | TGI (UO-31 renal): > 100 µM | TGI (HL-60(TB) leukemia): > 100 µM | TGI (OVCAR-3 ovarian): 60 µM | TGI (U251 CNS): 32.8 µM | TGI (EKVX NSCLC): > 100 µM | TGI (MALME-3M melanoma): 31 µM | TGI (NCI-H522 lung): 99.3 µM | TGI (SNB-75 CNS): > 100 µM | TGI (KM12 colon): 27.1 µM | TGI (OVCAR-8 ovarian): 49.6 µM | TGI (SK-OV-3 ovarian): > 100 µM | TGI (MDA-MB-435): 34.4 µM | TGI (UACC-257 melanoma): 30.6 µM | TGI (SN12C renal): 65.8 µM | TGI (K-562 leukemia): > 100 µM

Cc1cc(CN2CCCCC2)c(O)c(CN2CCCCC2)c1
TGI (SK-MEL-5 melanoma): > 100 µM | TGI (HOP-62 NSCLC): > 100 µM | TGI (NCI-H460 lung): > 100 µM | TGI (COLO 205 colon): > 100 µM | TGI (IGROV1 ovarian): > 100 µM | TGI (NCI-H226 lung): > 100 µM | TGI (MDA-N): > 100 µM | TGI (ACHN renal): > 100 µM | TGI (OVCAR-5 ovarian): > 100 µM | TGI (SF-268 CNS): > 100 µM | TGI (A498 renal): > 100 µM | TGI (RXF 393 renal): > 100 µM | TGI (UACC-62 melanoma): > 100 µM | TGI (SF-295 CNS): > 100 µM | TGI (HT29 colon): > 100 µM | TGI (NCI/ADR-RES ovarian): > 100 µM | TGI (HCT-15 colon): > 100 µM | TGI (PC-3 prostate): > 100 µM | TGI (SNB-19 CNS): > 100 µM | TGI (LOX IMVI melanoma): > 100 µM | TGI (SK-MEL-2 melanoma): > 100 µM | TGI (BT-549 breast): > 100 µM | TGI (CCRF-CEM leukemia): > 100 µM | TGI (SK-MEL-28 melanoma): > 100 µM | TGI (SW-620 colon): > 100 µM | TGI (DU-145 prostate): > 100 µM | TGI (HCT-116 colon): > 100 µM | TGI (A549 NSCLC): > 100 µM | TGI (M14 melanoma): > 100 µM | TGI (HS 578T breast): > 100 µM | TGI (MCF7 breast): > 100 µM | TGI (TK-10 renal): > 100 µM | TGI (OVCAR-4 ovarian): > 100 µM | TGI (RPMI-8226 leukemia): > 100 µM | TGI (SR leukemia): > 100 µM | TGI (HOP-92 NSCLC): > 100 µM | TGI (HCC-2998 colon): > 100 µM | TGI (786-0 renal): > 100 µM | TGI (NCI-H23 lung): > 100 µM | TGI (MDA-MB-231 breast): > 100 µM | TGI (T-47D breast): > 100 µM | TGI (UO-31 renal): > 100 µM | TGI (HL-60(TB) leukemia): > 100 µM | TGI (CAKI-1 renal): > 100 µM | TGI (OVCAR-3 ovarian): > 100 µM | TGI (U251 CNS): > 100 µM | TGI (EKVX NSCLC): > 100 µM | TGI (MALME-3M melanoma): > 100 µM | TGI (NCI-H522 lung): > 100 µM | TGI (SNB-75 CNS): > 100 µM | TGI (KM12 colon): > 100 µM | TGI (OVCAR-8 ovarian): > 100 µM | TGI (SK-OV-3 ovarian): > 100 µM | TGI (MDA-MB-435): > 100 µM | TGI (UACC-257 melanoma): > 100 µM | TGI (SN12C renal): > 100 µM | TGI (K-562 leukemia): > 100 µM
